A word on the MIC: it is the lowest concentration that inhibits growth of the organism.

Our source for the MIC values is patent US8883797B2, “Metalloenzyme inhibitor compounds” (Viamet Pharmaceuticals, Inc., priority 2011, dated 2014).

In this assay the test system is Septoria tritici (ATCC 26517). Put plainly: Minimum Inhibitory Concentration (MIC) (Septoria tritici), CLSI-based microdilution. Format: cell-based. To be noted: Zymoseptoria tritici, ATCC26517, 168 h; S. tritici ATCC 26517; 50% growth reduction; 7 days at 22 °C; read-out: Septoria Rating (MIC). The procedure:
C. Minimum Inhibitory Concentration (MIC) (Septoria tritici) Compounds of the present disclosure were assessed for their ability to inhibit the growth of a common strain of the fungal plant pathogen Septoria tritici (ATCC 26517) using a procedure based on a Clinical and Laboratory Standards Institute (CLSI) microdilution assay protocol for filamentous fungi. Stock solutions of the test compounds and standards were prepared in DMSO at 6400 μg/mL. Each stock solution was used to prepare a 2-fold dilution series ranging from 16 to 0.016 μg/mL (total of 11 compound concentrations) in RPMI-1640 (Roswell Park Memorial Institute) medium containing 3-(N-morpholino)propanesulfonic acid (MOPS) buffer and 2% DMSO. A 100 μL aliquot of the dilutions was added to columns 1 (16 μg/mL compound) through 11 (0.016 μg/mL compound) of a 96-well microtiter plate. This format was replicated in a second row of the microtiter plate. Thus, each microtiter plate could include 11 concentrations of four test or control compounds replicated twice. A 100 μL aliquot of RPMI-1640/MOPS/2% DMSO medium was added to column 12 (no compound control) of the microtiter plate. A fresh culture of S. tritici was used to prepare a solution of approximately 5×10^4 colony-forming units per milliliter (cfu/mL) in RPMI/MOPS medium without DMSO. A 100 μL aliquot of this solution was added to all 96 wells in the microtiter plate. […] The assay plates were incubated at 22° C. for seven days in the dark without shaking. […] In each case of Table 3 the rating scale is as follows: […]

Molecules are shown by their SMILES. ≈ marks a conversion by molar mass, not a printed value. Some results are limits rather than exact numbers.

Turning to `OC(Cn1cnnn1)(c1ccc(Cl)cc1F)C(F)(F)c1ccc2cc(Cl)ccc2n1` (stereo not drawn) [8(−), 2-(4-Chloro-2-fluorophenyl)-1-(6-chloroquinolin-2-yl)-1,1-difluoro-3-(1H-tetrazol-1-yl)propan-2-ol], the MIC was at most 0.5 µg/mL.

Regarding `OC(Cn1cnnn1)(c1ccc(F)cc1F)C(F)(F)c1cnc2cc(Cl)ccc2n1` (stereo not drawn) [10(−), 1-(6-Chloroquinoxalin-2-yl)-2-(2,4-difluorophenyl)-1,1-difluoro-3-(1H-tetrazol-1-yl)propan-2-ol], the MIC is at most 0.5 µg/mL.

`OC(Cn1cnnn1)(c1ccc(F)cc1F)C(F)(F)c1nc(Br)cs1` (centres unmarked) [Compound 2, 1-(4-Bromothiazol-2-yl)-2-(2,4-difluorophenyl)-1,1-difluoro-3-(1H-tetrazol-1-yl)propan-2-ol]: the MIC lay in the range of 1.5 to 4 µg/mL (≈ 3.42 to 9.13 µM).

With `OC(Cn1cnnn1)(c1ccc(F)cc1F)C(F)(F)c1nc2ccccc2s1` (centres unmarked) [Compound 6, 1-(Benzo[d]thiazol-2-yl)-2-(2,4-difluorophenyl)-1,1-difluoro-3-(1H-tetrazol-1-yl)propan-2-ol], the MIC was at most 0.5 µg/mL.

`OC(Cn1cnnn1)(c1ccc(F)cc1F)C(F)(F)c1nccs1` (centres unmarked) [Compound 12, 2-(2,4-Difluorophenyl)-1,1-difluoro-3-(1H-tetrazol-1-yl)-1-(thiazol-2-yl)propan-2-ol]: the MIC is over 4 µg/mL.

For `OC(Cn1cnnn1)(c1ccc(F)cc1F)C(F)(F)c1cccs1` (centres unmarked) [Compound 14, 2-(2,4-Difluorophenyl)-1,1-difluoro-3-(1H-tetrazol-1-yl)-1-(thiophen-2-yl)propan-2-ol], the MIC lay within 0.5 to 1.5 µg/mL (≈ 1.4 to 4.19 µM).

Regarding `COc1ccc(C(O)(Cn2cnnn2)C(F)(F)c2ccc3cc(Cl)ccc3n2)cc1` (centres unmarked) [Compound 15, 1-(6-Chloroquinolin-2-yl)-1,1-difluoro-2-(4-methoxyphenyl)-3-(1H-tetrazol-1-yl)propan-2-ol], the MIC was in the range of 1.5 to 4 µg/mL (≈ 3.47 to 9.26 µM).

For `OC(Cn1ncnn1)(c1ccc(F)cc1F)C(F)(F)c1ccc2cc(Cl)ccc2n1` (centres unmarked) [Compound 16, 1-(6-Chloroquinolin-2-yl)-2-(2,4-difluorophenyl)-1,1-difluoro-3-(2H-tetrazol-2-yl)propan-2-ol], the minimum inhibitory concentration (MIC) is 0.5 to 1.5 µg/mL (≈ 1.14 to 3.43 µM).

For `OC(Cn1cnnn1)(c1ccc(F)cc1F)C(F)(F)c1ccc2cc(F)ccc2n1` (centres unmarked) [Compound 17, 2-(2,4-Difluorophenyl)-1,1-difluoro-1-(6-fluoroquinolin-2-yl)-3-(1H-tetrazol-1-yl)propan-2-ol], the minimum inhibitory concentration (MIC) is at most 0.5 µg/mL.

Consider `OC(Cn1cnnn1)(c1ccc(F)cc1F)C(F)(F)c1ccc2cc(OCC(F)(F)F)ccc2n1` (centres unmarked) [Compound 19, 2-(2,4-Difluorophenyl)-1,1-difluoro-3-(1H-tetrazol-1-yl)-1-(6-(2,2,2-trifluoroethoxy)quinolin-2-yl)propan-2-ol], for which the minimal inhibitory concentration (MIC) lay within 0.5 to 1.5 µg/mL (≈ 0.997 to 2.99 µM).

With `OC(Cn1cnnn1)(c1ccc(C(F)(F)F)cc1F)C(F)(F)c1ccc2cc(Cl)ccc2n1` (centres unmarked) [Compound 20, 1-(6-Chloroquinolin-2-yl)-1,1-difluoro-2-(2-fluoro-4-(trifluoromethyl)phenyl)-3-(1H-tetrazol-1-yl)propan-2-ol], the MIC lay within 0.5 to 1.5 µg/mL (≈ 1.03 to 3.08 µM).

Regarding `OC(Cn1cnnn1)(c1ccc(C(F)(F)F)cc1Cl)C(F)(F)c1ccc2cc(Cl)ccc2n1` (centres unmarked) [Compound 22, 2-(2-Chloro-4-(trifluoromethyl)phenyl)-1-(6-chloroquinolin-2-yl)-1,1-difluoro-3-(1H-tetrazol-1-yl)propan-2-ol], the minimal inhibitory concentration (MIC) lay in the range of 1.5 to 4 µg/mL (≈ 2.97 to 7.93 µM).

For `OC(Cn1cnnn1)(c1ccc(F)c(F)c1)C(F)(F)c1ccc2cc(Cl)ccc2n1` (centres unmarked) [Compound 23, 1-(6-Chloroquinolin-2-yl)-2-(3,4-difluorophenyl)-1,1-difluoro-3-(1H-tetrazol-1-yl)propan-2-ol], the minimum inhibitory concentration (MIC) was at most 0.5 µg/mL.

For the compound `N#Cc1ccc2nc(C(F)(F)C(O)(Cn3cnnn3)c3ccc(F)cc3F)ccc2c1` (centres unmarked) [Compound 24, 2-(2-(2,4-Difluorophenyl)-1,1-difluoro-2-hydroxy-3-(1H-tetrazol-1-yl)propyl)quinoline-6-carbonitrile], the minimal inhibitory concentration (MIC) was at most 0.5 µg/mL.
